# Results as given in patent US9493466B2, “Treatment of cancer with TOR kinase inhibitors” (Signal Pharmaceuticals, LLC, priority 2011, dated 2016).
# Assays:
# Experiment in all cases: Apoptosis assay for NHL lines (Caspase 3/7-Glo)
# Type in all cases: cell-based
# SU-DHL-4 = settings: SU-DHL-4, NHL DLBCL, 24 hours, n = 1
# Protocol: (§1) Apoptosis Assay for NHL Lines. Prior to testing, cells were grown and expanded in culture flasks to provide sufficient amounts of starting material. Cells were then diluted to their desired densities and added directly to compound-spotted 384-well plates. Cells were allowed to grow for 24 hours in 5% CO2 at 37° C. The apoptotic response was assessed by quantifying the activities of caspase 3 and caspase 7 (Caspase 3/7-Glo) in treated cells and control cells at the 24-hour time point. All data was normalized and represented as a value relative to the DMSO-treated cells. Results were then expressed as CalX, which is the minimum compound concentration required to double the levels of caspase 3/7 relative to those of the DMSO-treated cells during their treatment period.
# SU-DHL-16 = settings: SU-DHL-16, NHL DLBCL, 24 hours, n = 1
# Protocol: as §1
# SU-DHL-10 = settings: SU-DHL-10, NHL DLBCL, 24 hours, n = 1
# Protocol: as §1
# Pfeiffer = settings: NHL DLBCL, 24 hours, n = 1
# Protocol: as §1
# SC-1 = settings: SC-1, NHL FL, 24 hours, n = 1
# Protocol: as §1
# DB = settings: NHL DLBCL, 24 hours, n = 1
# Protocol: as §1
# WSU-DLCL2 = settings: WSU-DLCL2, NHL DLBCL, 24 hours, n = 1
# Protocol: as §1
# SU-DHL-6 = settings: SU-DHL-6, NHL DLBCL, 24 hours, n = 1
# Protocol: as §1
# JVM-13 = settings: JVM-13, NHL MCL, 24 hours, n = 1
# Protocol: as §1
# U-2940 = settings: U-2940, NHL DLBCL, 24 hours, n = 1
# Protocol: as §1
# Mino = settings: NHL MCL, 24 hours, n = 1
# Protocol: as §1
# OCI-LY-3 = settings: OCI-LY-3, NHL DLBCL, 24 hours, n = 1
# Protocol: as §1
# OCI-LY-19 = settings: OCI-LY-19, NHL DLBCL, 24 hours, n = 1
# Protocol: as §1
# WSU-FSCCL = settings: NHL FL, 24 hours, n = 1
# Protocol: as §1
# JEKO-1 = settings: JEKO-1, NHL MCL, 24 hours, n = 1
# Protocol: as §1
# DOHH-2 = settings: DOHH-2, NHL FL, 24 hours, n = 1
# Protocol: as §1
# KARPAS-422 = settings: KARPAS-422, NHL DLBCL, 24 hours, n = 1
# Protocol: as §1
# JVM-2 = settings: JVM-2, NHL MCL, 24 hours, n = 1
# Protocol: as §1
# KARPAS-1106P = settings: NHL DLBCL, 24 hours, n = 1
# Protocol: as §1
# WSU-NHL = settings: NHL FL, 24 hours, n = 1
# Protocol: as §1
# Granta-519 = settings: Granta-519, NHL MCL, 24 hours, n = 1
# Protocol: as §1
# RIVA = settings: NHL DLBCL, 24 hours, n = 1
# Protocol: as §1
# KG-1 = settings: KG-1, Leukemia M-AML, 24 hours, n = 1
# Protocol: as §1
compound,measurement,setting,value
"CO[C@H]1CC[C@H](N2C(=O)CNc3ncc(-c4ccc(C(C)(C)O)nc4)nc32)CC1 [Compound 1, 7-(6-(2-hydroxypropan-2-yl)pyridin-3-yl)-1-((1r,4r)-4-methoxycyclohexyl)-3,4-dihydropyrazino-[2,3-b]pyrazin-2(1H)-one]",Apoptotic,SU-DHL-4,N/Y
same,CalX (minimum concentration to double caspase 3/7),SU-DHL-4,5.15
same,CalX (minimum concentration to double caspase 3/7),SU-DHL-16,0.11
same,CalX (minimum concentration to double caspase 3/7),SU-DHL-10,0.54
same,CalX (minimum concentration to double caspase 3/7),Pfeiffer,10
same,CalX (minimum concentration to double caspase 3/7),SC-1,10
same,Apoptotic,DB,N/Y
same,CalX (minimum concentration to double caspase 3/7),DB,5.44
same,CalX (minimum concentration to double caspase 3/7),WSU-DLCL2,0.19
same,CalX (minimum concentration to double caspase 3/7),SU-DHL-6,10
same,Apoptotic,JVM-13,N/Y
same,CalX (minimum concentration to double caspase 3/7),JVM-13,4.27
same,CalX (minimum concentration to double caspase 3/7),U-2940,0.43
same,CalX (minimum concentration to double caspase 3/7),Mino,0.53
same,CalX (minimum concentration to double caspase 3/7),OCI-LY-3,0.67
same,CalX (minimum concentration to double caspase 3/7),OCI-LY-19,1.13
same,CalX (minimum concentration to double caspase 3/7),WSU-FSCCL,0.16
same,CalX (minimum concentration to double caspase 3/7),JEKO-1,0.56
same,CalX (minimum concentration to double caspase 3/7),DOHH-2,0.14
same,Apoptotic,KARPAS-422,N/Y
same,CalX (minimum concentration to double caspase 3/7),KARPAS-422,5.16
same,Apoptotic,JVM-2,N/Y
same,CalX (minimum concentration to double caspase 3/7),JVM-2,3.2
same,CalX (minimum concentration to double caspase 3/7),KARPAS-1106P,0.25
same,CalX (minimum concentration to double caspase 3/7),WSU-NHL,0.16
same,CalX (minimum concentration to double caspase 3/7),Granta-519,10
same,Apoptotic,RIVA,N/Y
same,CalX (minimum concentration to double caspase 3/7),RIVA,3.84
same,CalX (minimum concentration to double caspase 3/7),KG-1,10
